Reference: patent publication US8536136B2, “Inhibitors of serine proteases, particularly HCV NS3-NS4A protease” (Vertex Pharmaceuticals Incorporated, priority 2004, dated 2013)

Molecular target: HCV NS3-NS4A protease (tNS3 with KK4A) (Hepatitis C virus genotype 1a, UniProt P27958)
Assay: HCV Ki Assay (HPLC microbore separation of 5AB substrate and products)
Assay type: biochemical
Conditions: 25 nM tNS3, 25 μM KK4A, 25 μM 5AB substrate, 20 min at 30 C
Protocol: HPLC Microbore Method for Separation of 5AB Substrate and Products
NH2-Glu-Asp-Val-Val-(alpha)Abu-Cys-Ser-Met-Ser-Tyr-COOH
A stock solution of 20 mM 5AB (or concentration of your choice) was made in DMSO w/0.2M DTT. This was stored in aliquots at −20 C.
Buffer: 50 mM HEPES, pH 7.8; 20% glycerol; 100 mM NaCl
Total assay volume was 100 μL
The buffer, KK4A, DTT, and tNS3 were combined; distributed 78 μL each into wells of 96 well plate. This was incubated at 30 C for ˜5-10 min.
2.5 μL of appropriate concentration of test compound was dissolved in DMSO (DMSO only for control) and added to each well. This was incubated at room temperature for 15 min.
Initiated reaction by addition of 20 μL of 250 μM 5AB substrate (25 μM concentration is equivalent or slightly lower than the Km for 5AB).
Incubated for 20 min at 30 C.
Terminated reaction by addition of 25 μL of 10% TFA
Transferred 120 μL aliquots to HPLC vials
Separated SMSY product from substrate and KK4A by the following method:
Microbore Separation Method:
Stop time: 17 min Post-run time: 10 min.

Chain of HCV NS3-NS4A protease (tNS3 with KK4A) (P27958 1027-1208): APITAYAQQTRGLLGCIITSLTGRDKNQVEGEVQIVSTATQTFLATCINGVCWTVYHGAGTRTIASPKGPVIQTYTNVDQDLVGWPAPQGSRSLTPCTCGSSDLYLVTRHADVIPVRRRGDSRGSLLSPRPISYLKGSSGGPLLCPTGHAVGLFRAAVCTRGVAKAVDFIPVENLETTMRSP
Chain of HCV NS3-NS4A protease (tNS3 with KK4A) (P27958 1658-1711): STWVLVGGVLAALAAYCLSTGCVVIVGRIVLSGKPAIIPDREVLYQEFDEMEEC

With `CCC[C@H](NC(=O)[C@@H]1C[C@@H]2CCCC[C@@H]2N1C(=O)[C@@H](NC(=O)[C@@H](NC(=O)c1cnccn1)C1CCCCC1)C(C)(C)C)C(=O)C(=O)NOCC(C)C` [Compound 1, 1-(2-{2-Cyclohexyl-2-[(pyrazine-2-carbonyl)-amino]-acetylamino}-3,3-dimethyl-butyryl)-octahydro-indole-2-carboxylic acid (1-isobutoxyaminooxalyl-butyl)-amide] as the molecule, how does the Ki read?
Its Ki is less than 1500 nM.

For `CCC[C@H](NC(=O)[C@@H]1C[C@@H]2CCCC[C@@H]2N1C(=O)[C@@H](NC(=O)[C@@H](NC(=O)c1cnccn1)C1CCCCC1)C(C)(C)C)C(=O)C(=O)NOC(C)(C)C` [Compound 2, 1-(2-{2-Cyclohexyl-2-[(pyrazine-2-carbonyl)-amino]-acetylamino}-3,3-dimethyl-butyryl)-octahydro-indole-2-carboxylic acid (1-tert-butoxyaminooxalyl-butyl)-amide], which Ki is on record?
The Ki was less than 1500 nM.

How did the Ki turn out when `CCC[C@H](NC(=O)[C@@H]1C[C@@H]2CCCC[C@@H]2N1C(=O)[C@@H](NC(=O)[C@@H](NC(=O)c1cnccn1)C1CCCCC1)C(C)(C)C)C(=O)C(=O)NOCc1ccccc1` [Compound 3, 1-(2-{2-Cyclohexyl-2-[(pyrazine-2-carbonyl)-amino]-acetylamino}-3,3-dimethyl-butyryl)-octahydro-indole-2-carboxylic acid (1-benzyloxyaminooxalyl-butyl)-amide] was run?
Its Ki is 1500 to 3000 nM.

Which Ki does the source give for `C=CCONC(=O)C(=O)[C@H](CCC)NC(=O)[C@@H]1C[C@@H]2CCCC[C@@H]2N1C(=O)[C@@H](NC(=O)[C@@H](NC(=O)c1cnccn1)C1CCCCC1)C(C)(C)C` [Compound 4, 1-(2-{2-Cyclohexyl-2-[(pyrazine-2-carbonyl)-amino]-acetylamino}-3,3-dimethyl-butyryl)-octahydro-indole-2-carboxylic acid (1-allyloxyaminooxalyl-butyl)-amide] here?
Its Ki is greater than 3000 nM.

With `CCC[C@H](NC(=O)[C@@H]1C[C@@H]2CCCC[C@@H]2N1C(=O)[C@@H](NC(=O)[C@@H](NC(=O)c1cnccn1)C1CCCCC1)C(C)(C)C)C(=O)C(=O)NOc1ccccc1` [Compound 5, 1-(2-{2-Cyclohexyl-2-[(pyrazine-2-carbonyl)-amino]-acetylamino}-3,3-dimethyl-butyryl)-octahydro-indole-2-carboxylic acid (1-phenoxyaminooxalyl-butyl)-amide] as the molecule, how does the Ki read?
Its Ki is 1500 to 3000 nM.

`CCC[C@H](NC(=O)[C@@H]1C[C@@H]2CCCC[C@@H]2N1C(=O)[C@@H](NC(=O)[C@@H](NC(=O)c1cnccn1)C1CCCCC1)C(C)(C)C)C(=O)C(=O)NN(C)c1ccccc1` [Compound 6, 1-(2-{2-Cyclohexyl-2-[(pyrazine-2-carbonyl)-amino]-acetylamino}-3,3-dimethyl-butyryl)-octahydro-indole-2-carboxylic acid [1-(N′-methyl-N′-phenyl-hydrazinooxalyl)-butyl]-amide] was tested. Which Ki did it give?
Its Ki is less than 1500 nM.

`CCC[C@H](NC(=O)[C@@H]1C[C@@H]2CCCC[C@@H]2N1C(=O)[C@@H](NC(=O)[C@@H](NC(=O)c1cnccn1)C1CCCCC1)C(C)(C)C)C(=O)C(=O)NN1CCOCC1` [Compound 7] was tested. Which Ki did it give?
The Ki was greater than 3000 nM.

With `CCC[C@H](NC(=O)[C@@H]1C[C@@H]2CCCC[C@@H]2N1C(=O)[C@@H](NC(=O)[C@@H](NC(=O)c1cnccn1)C1CCCCC1)C(C)(C)C)C(=O)C(=O)NN(Cc1ccccc1)Cc1ccccc1` [Compound 8] as the molecule, how does the Ki read?
The Ki was greater than 3000 nM.
